The source made the active and inactive calls. The rule behind the calls is not given here.
System: GENE-TOX genotoxicity assays, various organisms and cells
Assay: GENE-TOX mutagenicity studies
Settings: for call: Assay Type: In vivo carcinogenicity studies, Assay Code: CCG+
[1] = Species/Cell Type: Saccharomyces cerevisiae, Assay Type: Mitotic recombination or gene conversion, Assay Code: YEH+, Evaluation Type: Evaluation A (Pre-1980)
[2] = Species/Cell Type: Mammalian polychromatic erythrocytes, Assay Type: Micronucleus test, chromosome aberrations, Assay Code: MNT-, Evaluation Type: Evaluation B (Post-1980)
[3] = Species/Cell Type: Saccharomyces cerevisiae, Assay Type: Mitotic recombination or gene conversion, Assay Code: YEH-, Evaluation Type: Evaluation A (Pre-1980)
[4] = Species/Cell Type: Salmonella typhimurium, Assay Type: Forward and reverse gene mutation, host-mediated assay, Assay Code: HMA-, Evaluation Type: Evaluation A (Pre-1980)
[5] = Species/Cell Type: Escherichia coli polA (W3110 vs P3478), Assay Type: Rec-assay, DNA effects (bacterial DNA repair), Assay Code: RE2+, Evaluation Type: Evaluation A (Pre-1980)
[6] = Species/Cell Type: Escherichia coli polA (W3119 vs P3478), Assay Type: Rec-assay, DNA effects (bacterial DNA repair), Assay Code: RE1T, Evaluation Type: Evaluation A (Pre-1980)
[7] = Species/Cell Type: Human diploid fibroblasts, Assay Type: Unscheduled DNA synthesis (UDS) in vitro, DNA effects, Assay Code: UDH-, Evaluation Type: Evaluation A (Pre-1980)
[8] = Species/Cell Type: Salmonella typhimurium (one or more of the five standard strains: TA98, TA100, TA1535, TA1537, and TA1538), Assay Type: Histidine reverse gene mutation, Ames assay, Assay Code: SAL+*, Activation: With metabolic activation, Evaluation Type: Evaluation A (Pre-1980)
[9] = Species/Cell Type: Mouse, Sex: Male, Assay Type: Sperm morphology, Assay Code: SPI-, Evaluation Type: Evaluation A (Pre-1980)
[10] = Species/Cell Type: Nonhuman, Evaluation Type: Evaluation A (Pre-1980)
[11] = Species/Cell Type: Mammalian polychromatic erythrocytes, Assay Type: Micronucleus test, chromosome aberrations, Assay Code: MNTT, Evaluation Type: Evaluation A (Pre-1980)
[12] = Species/Cell Type: Nonhuman, Assay Type: Sister-chromatid exchange (SCE) in vitro, Assay Code: SC2-, Evaluation Type: Evaluation B (Post-1980)

Compound: NC(=O)c1ccc(/C=C/c2ccc([N+](=O)[O-])o2)cc1
- mutagenic call (Species/Cell Type: Drosophila melanogaster, Assay Type: Sex-linked recessive lethal gene mutation, Assay Code: SRL+, Evaluation Type: Evaluation A (Pre-1980)): active; positive
- mutagenic call (Species/Cell Type: Neurospora crassa, Assay Type: Forward gene mutation, Assay Code: NEF+, Evaluation Type: Evaluation A (Pre-1980)): active; positive
- mutagenic call (Species/Cell Type: Neurospora crassa, Assay Type: Reverse gene mutation, Assay Code: NER+, Evaluation Type: Evaluation A (Pre-1980)): active; positive
- mutagenic call [1]: active; positive
- mutagenic call (Species/Cell Type: Saccharomyces cerevisiae, Assay Type: Reverse gene mutation, Assay Code: YER+, Evaluation Type: Evaluation A (Pre-1980)): active; positive

Compound: Oc1cc(O)c2ccccc2c1
- mutagenic call (Species/Cell Type: Allium cepa, Assay Type: Chromosome aberrations, Assay Code: ALCT, Evaluation Type: Evaluation A (Pre-1980)): no conclusion

Compound: CCC(C)=O
- mutagenic call (Species/Cell Type: Bacillus subtilis (H17 vs M45), Assay Type: Rec-assay, spot test, DNA effects (bacterial DNA repair), Assay Code: REWT, Evaluation Type: Evaluation A (Pre-1980)): no conclusion
- mutagenic call [2]: inactive; negative

Compound: CCN(CC)CCCNC(=O)N/N=C/c1ccc([N+](=O)[O-])o1
- mutagenic call (Species/Cell Type: Escherichia coli WP2 UVRA, Assay Type: Tryptophan reverse gene mutation, Assay Code: WPU+, Evaluation Type: Evaluation A (Pre-1980)): active; positive

Compound: O=C1CCCCCO1
- mutagenic call (Species/Cell Type: Escherichia coli polA (W3110 vs P3478), Assay Type: Rec-assay, DNA effects (bacterial DNA repair), Assay Code: RE2-, Evaluation Type: Evaluation A (Pre-1980)): inactive; negative
- mutagenic call (Species/Cell Type: Escherichia coli polA (W3119 vs P3478), Assay Type: Rec-assay, DNA effects (bacterial DNA repair), Assay Code: RE1-, Evaluation Type: Evaluation A (Pre-1980)): inactive; negative
- mutagenic call (Species/Cell Type: Mouse lymphoma (L5178Y) cells, Assay Type: Forward gene mutation at the thymidine kinase (TK) locus, chromosome aberrations, Assay Code: L51-, Evaluation Type: Evaluation A (Pre-1980)): inactive; negative
- mutagenic call (Species/Cell Type: Nonhuman, Assay Type: Sister-chromatid exchange (SCE) in vitro, Assay Code: SC2-, Evaluation Type: Evaluation A (Pre-1980)): inactive; negative
- mutagenic call [3]: inactive; negative
- mutagenic call (Species/Cell Type: Salmonella typhimurium (one or more of the five standard strains: TA98, TA100, TA1535, TA1537, and TA1538), Assay Type: Histidine reverse gene mutation, Ames assay, Assay Code: SAL-, Evaluation Type: Evaluation A (Pre-1980)): inactive; negative
- mutagenic call [4]: inactive; negative
- mutagenic call (Species/Cell Type: Syrian hamster embryo (SHE) cells, Assay Type: Cell transformation, clonal assay, Assay Code: CTC-, Evaluation Type: Evaluation A (Pre-1980)): inactive; negative

Compound: CC(=O)Nc1ccc2c(c1)Cc1cccc(O)c1-2
- mutagenic call [5]: active; positive
- mutagenic call [6]: no conclusion
- mutagenic call [7]: inactive; negative
- mutagenic call [3]: inactive; negative
- mutagenic call [8]: active; positive

Compound: CCc1ccccc1O
- mutagenic call (Species/Cell Type: Human lymphocytes, Assay Type: Sister-chromatid exchange (SCE) in vitro, Assay Code: SCLT, Evaluation Type: Evaluation B (Post-1980)): no conclusion
- mutagenic call (Species/Cell Type: Human, Assay Type: Sister-chromatid exchange (SCE) in vitro, Assay Code: SC1T, Evaluation Type: Evaluation B (Post-1980)): no conclusion

Compound: Cc1cc(O)c(C(C)C)cc1O
- mutagenic call (Species/Cell Type: Allium cepa, Assay Type: Chromosome aberrations, Assay Code: ALC-, Evaluation Type: Evaluation A (Pre-1980)): inactive; negative

Compound: Nc1ccc(Cl)cc1Cl
- mutagenic call [9]: inactive; negative

Compound: Cc1ccc2c(c1N)C(=O)c1ccccc1C2=O
- call [10]: active; positive

Compound: Nc1ccc(-c2ccccc2)cc1
- mutagenic call [5]: active; positive
- mutagenic call [6]: no conclusion
- mutagenic call (Species/Cell Type: Fischer rat embryo (RLV/1706) cells, Assay Type: Cell transformation, viral enhanced, Assay Code: CTR+, Evaluation Type: Evaluation A (Pre-1980)): active; positive
- mutagenic call [7]: inactive; negative
- mutagenic call [11]: no conclusion
- mutagenic call (Species/Cell Type: Mouse embryo (AKR/ME) cells, Assay Type: Cell transformation, Assay Code: CTK+, Evaluation Type: Evaluation A (Pre-1980)): active; positive
- call [10]: active; positive
- mutagenic call (Species/Cell Type: Nonhuman, Assay Type: Sister-chromatid exchange (SCE) in vivo, Assay Code: SC3+, Evaluation Type: Evaluation B (Post-1980)): active; positive
- mutagenic call (Species/Cell Type: Rat primary hepatocytes, Assay Type: Unscheduled DNA synthesis (UDS) in vitro, DNA effects, Assay Code: UDP+, Evaluation Type: Evaluation A (Pre-1980)): active; positive
- mutagenic call [1]: active; positive
- mutagenic call [8]: active; positive
- mutagenic call (Species/Cell Type: Salmonella typhimurium, Assay Type: Forward and reverse gene mutation, body fluid assay, Assay Code: BFU+, Evaluation Type: Evaluation A (Pre-1980)): active; positive
- mutagenic call (Species/Cell Type: Salmonella typhimurium, Assay Type: Forward and reverse gene mutation, host-mediated assay, Assay Code: HMA+, Evaluation Type: Evaluation A (Pre-1980)): active; positive
- mutagenic call (Species/Cell Type: Syrian hamster embryo (SHE) cells, Assay Type: Cell transformation, clonal assay, Assay Code: CTC+, Evaluation Type: Evaluation A (Pre-1980)): active; positive

Compound: C1=Cc2c(cc3ccc4cccc5ccc2c3c45)CC1
- mutagenic call [8]: active; positive

Compound: OCCI
- mutagenic call (Species/Cell Type: Escherichia coli polA (W3119 vs P3478), Assay Type: Rec-assay, DNA effects (bacterial DNA repair), Assay Code: RE1+, Evaluation Type: Evaluation A (Pre-1980)): active; positive
- mutagenic call [9]: inactive; negative
- mutagenic call (Species/Cell Type: Salmonella typhimurium (one or more of the five standard strains: TA98, TA100, TA1535, TA1537, and TA1538), Assay Type: Histidine reverse gene mutation, Ames assay, Assay Code: SAL+, Evaluation Type: Evaluation A (Pre-1980)): active; positive

Compound: CCCCOCC1CO1 (configuration not stated)
- mutagenic call (Species/Cell Type: Mammalian polychromatic erythrocytes, Assay Type: Micronucleus test, chromosome aberrations, Assay Code: MNT+, Evaluation Type: Evaluation B (Post-1980)): active; positive

Compound: CC1(C)O[C@@H]1COc1c2occc2cc2ccc(=O)oc12
- mutagenic call (Species/Cell Type: Human lymphocytes, Assay Type: Sister-chromatid exchange (SCE) in vitro, Assay Code: SCL+D, Dose Response: With dose response, Evaluation Type: Evaluation B (Post-1980)): active; positive
- mutagenic call (Species/Cell Type: Human, Assay Type: Sister-chromatid exchange (SCE) in vitro, Assay Code: SC1+D, Dose Response: With dose response, Evaluation Type: Evaluation B (Post-1980)): active; positive

Compound: CC(=O)[O-].CC(=O)[O-].[Hg+2]
- mutagenic call (Species/Cell Type: Mammalian oocytes or early embryo, Assay Type: Chromosome aberrations in vivo, Assay Code: CYO-, Evaluation Type: Evaluation A (Pre-1980)): inactive; negative
- mutagenic call [12]: inactive; negative

Compound: Cc1cccc2ccc3c4ccccc4ccc3c12
- mutagenic call [8]: active; positive

Compound: CCC[C@@H]1C[C@@H](C(=O)N[C@@H]([C@H]2O[C@H](SC)[C@H](O)[C@@H](O)[C@H]2O)[C@@H](C)O)N(C)C1
- mutagenic call (Species/Cell Type: Bacillus subtilis (H17 vs M45T), Assay Type: Rec-assay, spot test, DNA effects (bacterial DNA repair), Assay Code: REXT, Evaluation Type: Evaluation A (Pre-1980)): no conclusion

Compound: [Cl][Cd][Cl]
- mutagenic call (Species/Cell Type: Bacillus subtilis (H17 vs M45), Assay Type: Rec-assay, spot test, DNA effects (bacterial DNA repair), Assay Code: REW+, Evaluation Type: Evaluation A (Pre-1980)): active; positive
- mutagenic call (Species/Cell Type: Drosophila melanogaster, Assay Type: Aneuploidy, whole sex chromosome loss, chromosome aberrations, Assay Code: DAC+, Evaluation Type: Evaluation A (Pre-1980)): active; positive
- mutagenic call (Species/Cell Type: Human lymphocytes or leukocytes, Assay Type: Chromosome aberrations in vitro, Assay Code: CY7-, Evaluation Type: Evaluation A (Pre-1980)): inactive; negative
- mutagenic call [2]: inactive; negative
- mutagenic call [11]: no conclusion
- mutagenic call (Species/Cell Type: Mouse, Sex: Male, Assay Type: Sperm morphology, Assay Code: SPIT, Evaluation Type: Evaluation A (Pre-1980)): no conclusion
- call [10]: active; positive
- mutagenic call [12]: inactive; negative
- mutagenic call (Species/Cell Type: Rabbit, Sex: Male, Assay Type: Sperm morphology, Assay Code: SPR+, Evaluation Type: Evaluation A (Pre-1980)): active; positive
- mutagenic call (Species/Cell Type: Rat, Sex: Male, Assay Type: Sperm morphology, Assay Code: SPA+, Evaluation Type: Evaluation A (Pre-1980)): active; positive
- mutagenic call (Species/Cell Type: Rodents, Sex: Male, Assay Type: Dominant lethal test, Assay Code: DLT-, Evaluation Type: Evaluation A (Pre-1980)): inactive; negative
- mutagenic call [1]: active; positive
- mutagenic call (Species/Cell Type: Salmonella typhimurium (one or more of the five standard strains: TA98, TA100, TA1535, TA1537, and TA1538), Assay Type: Histidine reverse gene mutation, Ames assay, Assay Code: SALT, Evaluation Type: Evaluation A (Pre-1980)): no conclusion
- mutagenic call [4]: inactive; negative
- mutagenic call (Species/Cell Type: Syrian hamster embryo (SA7/SHE) cells, Assay Type: Cell transformation, viral enhanced, Assay Code: CT7+, Evaluation Type: Evaluation A (Pre-1980)): active; positive
